ChEMBL document CHEMBL3507680, “University of Dundee, Gates Library screen for HepG2 cell viability”

Assay: Human HepG2 cell viability assay in 384 well format
Format: toxicity, cell-based
Design: dose 125 nL, time 70.5 hour; concentration not given beside the values
Conditions: HepG2 cells, read-out: Inhibition

Row | Structure (SMILES) | cytotoxicity at 70.5 h [%]
1 | Cc1c(C(=O)N2CCC3(CCC(=O)N(CCN(C)C)C3)CC2)ccn1C | 0.579
2 | CCc1nccn1CCC(=O)N1CCCC1c1ccc(F)cc1 (stereo not given) | -1.42
3 | CCOC(=O)c1n[nH]cc1CN1CCOC(Cc2ccc(F)cc2)C1 (stereo not given) | -3.8
4 | Nc1nc2c(c(NCc3nc(-c4ccncc4)n[nH]3)n1)CCCC2 | -0.22
5 | Cc1cc(C)n(CC(C)NCCn2nc(C)c(Cl)c2C)n1 (stereo not given) | 3.47
6 | N#Cc1cccc(Oc2ccc(CN3CCCC3)cc2Cl)n1 | 18.1
7 | Cn1cc(-c2c(C#N)c(N)nc3c2CCc2[nH]ccc2-3)cc1C#N | 16.7
8 | O=C(c1cccc(CO)n1)N1CCCC1c1nc2cc(F)ccc2[nH]1 (stereo not given) | 16.2
9 | CC(C)=CCC1(CO)CCCN(Cc2cnc(N3CCOCC3)nc2)C1 (stereo not given) | -6.39
10 | CCn1ncc(C(=O)N2CCN(CC3CCCO3)CC2)c1C (stereo not given) | -0.538
11 | CN(Cc1nccn1C)c1nccc(N2CCCC(O)C2)n1 (stereo not given) | 2.11
12 | Cc1cncc(C(=O)N2CCCC(O)(CN(C)C)CC2)c1 (stereo not given) | 7.68
13 | c1ccc(-c2noc(CCNC3CCOC4(CCOCC4)C3)n2)nc1 (stereo not given) | -8.03
14 | O=C1CCC2(CCN(Cc3cscn3)CC2)CN1[C@H]1CC[C@H](O)CC1 | -13.1
15 | Cc1nc(CN2CCC(Oc3ccc(F)cc3C)(C(=O)O)CC2)co1 | -2.54
16 | C=C(C)CNCC1(O)CCCN(Cc2ccc(F)c(F)c2)C1=O (stereo not given) | -1.61
17 | C=Cc1cccc(CN2C[C@H]3CC[C@@H]2CN(Cc2c(C)noc2C)C3)c1 | -0.99
18 | CC(C)[C@H]1COC(=O)N1Cc1nnc(-c2ccccc2)o1 | -1.91
19 | CCOC(=O)N1CCC(NC(C)Cc2cc(C)n[nH]2)CC1 (stereo not given) | -0.223
20 | CN(C(=O)CCc1ccncc1)C1CCCN(CCc2ccccc2)C1 (stereo not given) | -7.17
21 | CCN(C)CC(=O)N1CCCC(c2nnc(CN3CCOCC3)n2C)C1 (stereo not given) | -4.67
22 | COc1ccc2nc(CNC(=O)c3cc(C(C)C)on3)[nH]c2c1 | -14.8
23 | Cc1nc(CC(=O)N(C)C2CCCN(CCc3ccccc3)C2)cs1 (stereo not given) | -4.36
24 | CCn1nc(CNC(=O)C2CCCN(C(=O)COC)C2)c2ccccc21 (stereo not given) | -5.41
25 | CN1[C@H]2CC[C@@H]1CN(c1cc(Sc3cccs3)nc(N)n1)CC2 | 22.8
26 | Cc1noc(-c2ccnc(Oc3ccc(CN4CCCC4)cc3F)c2)n1 | 13.3
27 | Cc1ccc2c(c1)c(CNC(=O)C1CC(=O)N(C3CC3)C1)nn2C (stereo not given) | -4.12
28 | O=C(c1cccc(-c2ccc(F)cc2)c1)N1CCC2(CC1)[C@H](O)C[C@@H]2O | -9.07

Row | Structure (SMILES) | cytotoxicity at 70.5 h [%]
29 | Cc1nc(CNc2nc(-c3ccco3)nc3c2CCNCC3)n[nH]1 | -5.4
30 | COc1cc(-c2cc(NC3CCCC3)nc3[nH]ccc23)nc(N)n1 | -11.3
31 | COCC(=O)N1CCC(C(=O)N(C)C(C)c2ccon2)CC1 (stereo not given) | -2.4
32 | Cc1ccc(Oc2ncccc2CNC(=O)NC2CCCCC2)cn1 | -6.45
33 | Cc1nc[nH]c1CN1CCOC(c2ccc(Cl)c(Cl)c2)C1 (stereo not given) | -2.06
34 | c1ccc(C(Cn2cccn2)Nc2cnccn2)cc1 (stereo not given) | -12.5
35 | CCC(CO)N(Cc1ccccn1)C(=O)c1cccc(C#N)c1 (stereo not given) | -1.64
36 | CC1CCN(CC2(O)CCCN(Cc3cccc(F)c3F)C2=O)CC1 (stereo not given) | 1.43
37 | CN(CCc1ccccn1)C(=O)c1cn2c(n1)CNCC2 | -8.81
38 | CN(C)CC1(O)CCCN(C(=O)c2cnc(-c3ccccn3)nc2)C1 (stereo not given) | -3.36
39 | CC(C)C(=O)N1CCN(C(=O)c2cc(C(C)C)no2)[C@H]2CS(=O)(=O)C[C@H]21 | -0.523
40 | Cc1cc(N(C)Cc2ncc[nH]2)nc(-c2ccccc2)n1 | -6.89
41 | O=C(c1ccc(C2CCCN2C(=O)c2cscn2)s1)N1CCSCC1 (stereo not given) | -11.1
42 | COc1ccc([C@@H]2CN(c3cc(C(=O)O)ccn3)C[C@H]2N(C)C)cc1 | 25.7
43 | CCc1cc(NCCc2cc(F)cc(F)c2)n2nccc2n1 | -2.57
44 | CS(=O)(=O)N1C[C@@H]2CC[C@H](C1)N(Cc1ccsc1)C2 | 34.2
45 | CCc1ccc(-c2c(C)c(-c3cnn(C)c3)nc(N)c2C#N)o1 | -6.72
46 | COc1cccc(Cl)c1C(C(=O)O)N(C)Cc1c(C)n[nH]c1C (stereo not given) | -12.4
47 | CCN1CCCC(c2c(-c3ccccc3)ncn2Cc2csc(N)n2)C1 (stereo not given) | -0.765
48 | CN(Cc1cc2n(n1)CCCNC2)Cc1cc(-c2ccncc2)no1 | -5.61
49 | OC(CNc1nc(C2CCCC2)nc2c1CCNCC2)C(F)(F)F (stereo not given) | -7.87
50 | CCn1cc(CNC(=O)CCc2nnc(-c3ccc(C)s3)o2)cn1 | 10
51 | CCn1cnnc1CCNC(=O)CCNC(=O)c1ccccc1F | -6.14
52 | CCS(=O)(=O)N[C@H]1CN(CC(C)(C)N2CCOCC2)C[C@@H]1C1CC1 | -18.9
53 | COCCN1CCCC(O)(CN2CCN(c3cnccn3)CC2)C1=O (stereo not given) | -3.08
54 | CC(C)n1cnnc1CCNCc1cn(CCC(N)=O)c2ccccc12 | -0.781
55 | CC(C)NCc1cc2n(n1)CCN(C1CCCCC1)C2 | 9.14
